Reference: patent US20250375474A1, “COMPOSITIONS FOR THE PREVENTION AND TREATMENT OF MOISTURE-ASSOCIATED SKIN DAMAGE” (SCOTIADERM INC., priority 2022, published 2025)

Tested on: incontinence-associated dermatitis (IAD) lesions induced with 5% pancreatin
Assay: Incontinence-associated dermatitis (IAD) rabbit model, treatment of induced ear lesions
Assay type: in vivo
Conditions: rabbit ears; 1% clotrimazole, 1% hydrocortisone, 15% zinc oxide applied separately vs combination
Protocol: A rabbit model of IAD was also investigated. A combination cream (DGBC) was used to assess healing of an animal model of IAD compared with three active components of the cream. Twenty-six IAD lesions were induced and each lesion was treated with the individual components and the combination cream.
Rabbits were purchased from Charles River to be used for these experiments. […] Additionally, the animals' ears were used to maximize the sample size, effectively halving the number of animals required for the project. Twenty-two female rabbits were purchased: 2 for the pilot phase and 18 for phase 2 of the project. The study was conducted, and animals were housed at the AVC Research Facility as per CCAC guidelines. The experimental treatment utilized a therapeutic cream composed of 1.0% hydrocortisone, 1.0% clotrimazole and 15.0% zinc oxide (DGBC).
Induction of IAD. 1.Sedation of rabbit: Midazolam 0.5 mg/kg intramuscularly (IM) plus buprenorphine 0.03 mg/kg IM. Animals were assessed for sedation prior to gauze application. Animals requiring further sedation were sedated with ketamine 5 mg/kg IM. 2.Cleaning of the ear: The skin of both inner ears of each animal were cleaned with a 2×2 gauze saturated with 3 ml isopropyl alcohol and allowed to air dry for 5 minutes before applying the saturated gauze. The animal were held for a period of 5 min to ensure the ear was dry prior to application of IAD induction. 3.Application of gauze with 5% pancreatin to induce IAD: both ears of the animals were irritated as follows: Sterile 2×2 gauze was used as a carrier for the irritant. The gauze was saturated with 3 ml of pancreatin. 4.Wrapping of the ear: Both ears of each animal had gauze with pancreatin applied to the medial surface. […] 5.Monitoring period of 24 h: After 24 hours the bandage and occlusive dressing was removed and the ears assessed for sufficient irritation. […] Rabbits assessed as painful 1 hour after administration of gabapentin were treated with buprenorphine 0.03 mg/kg SC and be reassessed for pain in 1 hour. […]

Structure (SMILES) | effect in treating IAD compared with DGBC therapeutic cream
Clc1ccccc1C(c1ccccc1)(c1ccccc1)n1ccnc1 [clotrimazole, Clotrimazole] | do not produce the same effect
C[C@]12CCC(=O)C=C1CC[C@@H]1[C@@H]2[C@@H](O)C[C@@]2(C)[C@H]1CC[C@]2(O)C(=O)CO [hydrocortisone, 11β, 17α,21-Trihydroxypregn-4-ene-3,20-dione] | do not produce the same effect
[O]=[Zn] [zinc oxide, Zinc oxide] | do not produce the same effect
